Assay [1] has as its system P.aeruginosa. Briefly: Quantitative germ count (re-isolation, surface method) after inoculating the test preparation. The class given is cell-based. The settings on record: Ausgangskeimzahl 2,7 x 10^5 KBE/ml. The essentials: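 Test preparations (5 ml) inoculated with ca. 10^5 CFU/ml of each strain, one tube per time point. After 2, 6, 8, 24, 32, 48 and 72 h, cells pelleted, washed and resuspended in NaCl-peptone buffer, then spiral-plated on Caso agar and incubated at 33±2 °C up to 4 days. Detection limit 100 CFU/ml.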

Assay [2] has as its system Alle Testkeime. Briefly: Overall assessment: time until all test germs are eliminated (count and enrichment). The class given is cell-based. To be noted: time after inoculation; all six test germs.
Method: Escherichia (E.coli) Staphylococcus (S.aureus) Streptococcus (Sc.) Pneumoniae Pseudomonas (P.aeruginosa) Staphylococcus (S. epidermidis) Haemophilus (H. influenzae)
Die verschiedenen Testsubstanzen a. bis j. wurden jeweils zu 5 ml in sterile Zentrifugenröhrchen abgefüllt und mit ca. 10^5 KBE^*/ml (* = koloniebildende Einheiten) der oben genannten Testkeime kontaminiert. Pro Substanz wurde für jeden Testkeim und jede zu prüfende Testzeit ein separater Ansatz angeimpft, d.h.10 Testsubstanzen zu jeweils 7 Testzeiten und 6 Testkeime (= insgesamt 502 Testansätze). Nach 2, 6, 8, 24, 32, 48 und 72 Stunden wurde dann der jeweilige Testansatz 10 Minuten bei 3000 rpm abzentrifugiert. Der Überstand wurde dekantiert und das Pellet in 5 ml NaCl Peptonpuffer aufgenommen und resuspendiert. Die Suspension wurde erneut 10 Minuten bei 3000 rpm abzentrifugiert und 5 ml NaCl-Peptonpuffer aufgenommen und mittels Vortex homogenisiert.
Die anschließende Keimzahlbestimmung erfolgte im Oberflächenverfahren durch Ausspiralisieren eines 10011 Aliquots auf Caso-Agar bzw. für H. influenzae auf Kochblut-Agar. Die Platten wurden bei 33±2°C für max. 4 Tage bebrütet. Die Nachweisgrenze des Verfahrens liegt bei 100 KBE/ml.
Jeweils 2 ml der Testansätze wurden in 20 ml Caso-Bouillon oder für H. influenzae, in Fildes-Medium der Firma Becton Dickinson, ARt. […]

Structures can show the parent of a compound that is named as a salt.

As for `O=C(O)c1cn(C2CC2)c2cc(N3CCNCC3)c(F)cc2c1=O` [Ciprofloxacin HCl 0,35 Gew.-%, Ciprofloxacin HCl, reference compound], the “Ergebnis der Reisolierung (in KBE/ml)” value in assay [1] (2 h after inoculation), in assay [1] (4 h after inoculation), in assay [1] (6 h after inoculation), in assay [1] (8 h after inoculation), in assay [1] (24 h after inoculation) and in assay [1] (32 h after inoculation) was less than 100 KBE/ml in each case. The “Ergebnis der Reisolierung (in KBE/ml)” value in assay [1] (48 h after inoculation) and in assay [1] (72 h after inoculation) was less than 100 KBE/ml throughout.

As for “Benzalkoniumchlorid [Benzalkoniumchlorid 0,001 Gew.-%]”, the “Ergebnis der Reisolierung (in KBE/ml)” value in assay [1] (2 h after inoculation), in assay [1] (4 h after inoculation), in assay [1] (6 h after inoculation), in assay [1] (8 h after inoculation), in assay [1] (24 h after inoculation) and in assay [1] (32 h after inoculation) was less than 100 KBE/ml each time. The “Ergebnis der Reisolierung (in KBE/ml)” value in assay [1] (48 h after inoculation) and in assay [1] (72 h after inoculation) was less than 100 KBE/ml in each case.

With `CC1COc2c(N3CCN(C)CC3)c(F)cc3c(=O)c(C(=O)O)cn1c23` (stereo not shown) [Ofloxacin 0,3 Gew.-%, Ofloxacin, reference compound], in assay [2], the “Testkeime nach Inokulation der Zubereitung auch qualitativ nicht mehr nachweisbar” value came to 24 Stunden. Moreover, the “Ergebnis der Reisolierung (in KBE/ml)” value in assay [1] (2 h after inoculation), in assay [1] (4 h after inoculation), in assay [1] (6 h after inoculation), in assay [1] (8 h after inoculation), in assay [1] (24 h after inoculation) and in assay [1] (32 h after inoculation) was less than 100 KBE/ml in each case. Also, the “Ergebnis der Reisolierung (in KBE/ml)” value in assay [1] (48 h after inoculation) and in assay [1] (72 h after inoculation) was less than 100 KBE/ml in each case.

Consider “Benzalkoniumchlorid [Benzalkoniumchlorid 0,006 Gew.-%]”, for which the “Ergebnis der Reisolierung (in KBE/ml)” value in assay [1] (2 h after inoculation), in assay [1] (4 h after inoculation), in assay [1] (6 h after inoculation), in assay [1] (8 h after inoculation), in assay [1] (24 h after inoculation) and in assay [1] (32 h after inoculation) was less than 100 KBE/ml in each case. Moreover, the “Ergebnis der Reisolierung (in KBE/ml)” value in assay [1] (48 h after inoculation) and in assay [1] (72 h after inoculation) was less than 100 KBE/ml in each case.

As for “Benzalkoniumchlorid [Benzalkoniumchlorid 0,0025 Gew.-%]”, the “Ergebnis der Reisolierung (in KBE/ml)” value in assay [1] (2 h after inoculation), in assay [1] (4 h after inoculation), in assay [1] (6 h after inoculation), in assay [1] (8 h after inoculation), in assay [1] (24 h after inoculation) and in assay [1] (32 h after inoculation) was less than 100 KBE/ml each time. Further, the “Ergebnis der Reisolierung (in KBE/ml)” value in assay [1] (48 h after inoculation) and in assay [1] (72 h after inoculation) was less than 100 KBE/ml in each case.

As for `CCCCCCCCCCCC[N+](C)(C)Cc1ccccc1` [Benzalkoniumchlorid 0,005 Gew.-%, Benzododeciniumchlorid], the “Ergebnis der Reisolierung (in KBE/ml)” value in assay [1] (2 h after inoculation), in assay [1] (4 h after inoculation), in assay [1] (6 h after inoculation), in assay [1] (8 h after inoculation), in assay [1] (24 h after inoculation) and in assay [1] (32 h after inoculation) was less than 100 KBE/ml each time. Moreover, the “Ergebnis der Reisolierung (in KBE/ml)” value in assay [1] (48 h after inoculation) and in assay [1] (72 h after inoculation) was less than 100 KBE/ml throughout.

For the origin of these results see patent EP1171107B1, “USE OF A PHARMACEUTICAL COMPOSITION IN THE MANUFACTURE OF A MEDICAMENT FOR THE TREATMENT OF PATHOLOGICAL CONDITIONS OF THE EYE CAUSED BY BACTERIA, VIRUSES, FUNGI, YEASTS AND PROTOZOA” (Dr. GERHARD MANN chem.-pharm. Fabrik GmbH, priority 1999, dated 2000).
